15 molecules from PubChem BioAssay (NCI) can be followed below.

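Test compounds were applied to cells in 96-well plates for 48 hours at 5 doses. At the TGI there is no net growth.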 Where a SMILES comes first, the peptide text is derived from it.

Experiment in all cases: inhibition of tumour cell growth, NCI panel, 48 h
In assay [1] the test system is 786-0 renal.
In assay [2] the test system is A498 renal.
For assay [3], the system named is A549 NSCLC.
Assay [4] deals with CAKI-1 renal.
The subject of assay [5] is EKVX NSCLC.
The test system of assay [6] is HL-60(TB) leukemia.
The subject of assay [7] is HT29 colon.
Assay [8] relates to KM12 colon.
The test system of assay [9] is M14 melanoma.
The test system of assay [10] is MDA-MB-231 breast.
Assay [11] concerns NCI-H522 lung.
In assay [12] the test system is OVCAR-4 ovarian.
Assay [13] relates to OVCAR-5 ovarian.
The subject of assay [14] is RXF 393 renal.
For assay [15], the system named is SF-539 CNS.
For assay [16], the system named is SR leukemia.
The test system of assay [17] is TK-10 renal.
In assay [18] the test system is UO-31 renal.
In assay [19] the test system is SK-MEL-28 melanoma.

`C/C=N\n1c(C)c(C#N)c(C#N)c1N`: the TGI in assay [1], in [2], in [3], in [4], in assay [5] and in [6] was greater than 100 µM each time. In addition, the TGI in [7], in assay [8], in assay [9], in [10], in assay [11] and in assay [12] was greater than 100 µM each time. The TGI in [13], in assay [14], in assay [15], in assay [16], in [17] and in assay [18] was greater than 100 µM each time.

`CC(=O)NC1C(OC2C(CO)OC(OCC3OC(n4ccc(N)nc4=O)C(O)C3O)C(NC(C)=O)C2O)OC(CO)C(O)C1O` (stereo not given): the TGI in assay [1], in [2], in assay [3], in [4], in [5] and in assay [6] was greater than 100 µM each time. In addition, the TGI in assay [7], in assay [8], in assay [9], in [10], in assay [11] and in assay [12] was greater than 100 µM in each case. Also, the TGI in [13], in [14], in [15], in assay [19], in assay [16] and in assay [17] was greater than 100 µM throughout. For the same molecule, the TGI in assay [18] is greater than 100 µM.

As to `C[C@]12CC[C@H]3[C@@H](CCC4=CC(=O)CC[C@@]43C)[C@@H]1CC[C@@H]2C(=O)Nc1ccc([N+](=O)[O-])c(C(F)(F)F)c1`, the TGI was 31.2 µM in [1]; 33.6 µM in [2]; 37.1 µM in assay [3]; 35.9 µM in assay [4]; 27.8 µM in assay [5]; greater than 100 µM in assay [6]. The TGI is 32.1 µM in [7]; 36.4 µM in assay [8]; 43.4 µM in assay [10]; 37.2 µM in assay [11]; 34.9 µM in assay [12]; greater than 10 µM in assay [13]. Besides, the TGI turned out to be 33.5 µM in assay [15]; 37.4 µM in assay [19]; 87.4 µM in assay [16]; 35.3 µM in assay [17]; 32.8 µM in [18].

`CCC1c2[nH]c3ccccc3c2C[C@H]2C(=O)NC(CCCCNC(=O)OC(C)(C)C)C(=O)N12` (stereo not given in full): the TGI in assay [1] was 81.3 µM; in assay [2] it was greater than 100 µM; in assay [3], greater than 100 µM; in [4], 70.4 µM; in assay [5], greater than 100 µM; in assay [6], 59.6 µM. Also, the TGI in assay [7] is 99.3 µM; in assay [8], 44.7 µM; in [9], 40.9 µM; in assay [10], 99.4 µM; in assay [11], 50.9 µM; in [12] it was greater than 100 µM. Moreover, the TGI in [13] is greater than 100 µM; in assay [14] it was greater than 100 µM; in assay [19], greater than 100 µM; in assay [16] it was 92.8 µM; in assay [17], greater than 100 µM; in assay [18], greater than 100 µM.

In the case of `CC(C)[Si](OC1=C(c2ccccc2)C(NC(=O)/C=C/c2ccc([N+](=O)[O-])cc2)CCC1)(C(C)C)C(C)C` (stereo not given), the TGI in assay [1], in assay [2], in assay [3], in assay [5], in [6] and in assay [7] was greater than 100 µM in each case. In addition, the TGI in assay [8], in [9], in assay [10], in assay [11], in assay [13] and in [14] was greater than 100 µM in each case. Also, the TGI in [15], in assay [16], in assay [17] and in [18] was greater than 100 µM throughout.

Regarding `O=[N+]([O-])c1ccc(N/N=C(\c2ccccc2)c2ccccn2)nc1`, the TGI in assay [1] is 23.4 µM; in assay [2] it was greater than 100 µM; in assay [3], 24.2 µM; in assay [4], 29.1 µM; in assay [5], 17.3 µM; in assay [6], 31.7 µM. In addition, the TGI was greater than 100 µM in [7]; greater than 45.8 µM in assay [8]; 13.8 µM in assay [9]; 61.7 µM in [10]; 12.7 µM in [11]; greater than 100 µM in [12]. The TGI in assay [13] is 85.1 µM; in [14], 31.8 µM; in assay [15] it was 15.3 µM; in assay [19], greater than 100 µM; in [16], greater than 83.7 µM; in [18], 4.69 µM.

In the case of `CNC(=O)CNC(=O)C(NC(=O)CNC(=O)C1CCCN1C(=O)C(C)NC(=O)C(NC(C)=O)C(C)C)C(C)C` (stereo not given) (Ac-VAPGVG-NHMe; configuration not given here), the TGI in [1], in assay [2], in assay [4], in [5], in assay [6] and in assay [7] was greater than 100 µM throughout. Further, the TGI in [9], in [10], in assay [11], in assay [12], in [13] and in assay [15] was greater than 100 µM each time. The TGI in assay [19], in [16], in assay [17] and in assay [18] was greater than 100 µM throughout.

Consider `CC1OC(OC2C(CO)OC(O[C@H]3CC[C@@]4(C)C(=CC[C@H]5[C@@H]6C[C@@H]7O[C@](O)(CC[C@H](C)COC8OC(CO)C(O)C(O)C8O)[C@@H](C)[C@@H]7[C@@]6(C)CC[C@@H]54)C3)C(OC3OC(C)C(O)C(O)C3O)C2O)C(O)C(O)C1O` (stereo not given in full), for which the TGI was 5.72 µM in assay [1]; greater than 100 µM in assay [2]; 5.55 µM in assay [3]; 3.61 µM in [4]; greater than 100 µM in [5]; greater than 100 µM in [6]. Further, the TGI in assay [7] was greater than 100 µM; in [8] it was 5.69 µM; in assay [10], 30.8 µM; in [11], 7.53 µM; in assay [12], 28.8 µM; in assay [13] it was greater than 49.1 µM. Moreover, the TGI in [14] is 98.7 µM; in assay [15], greater than 21.6 µM; in assay [19], 12 µM; in assay [16], greater than 100 µM; in [17] it was greater than 100 µM; in assay [18], 13.3 µM.

As for `O=Nc1sc(=N\O)/c(=N/O)sc1NO`, the TGI in [1], in assay [2], in assay [3], in assay [4], in [5] and in [6] was greater than 100 µM each time. Besides, the TGI in [7], in [8], in assay [9], in assay [10], in assay [11] and in assay [12] was greater than 100 µM each time. For the same molecule, the TGI in assay [13], in assay [14], in [15], in assay [19], in [16] and in assay [18] was greater than 100 µM in each case.

Regarding `O=c1c2cc(-c3ccccc3)cnc2sn1-c1ccc(Oc2ccccc2)cc1`, the TGI in assay [1] was 36.4 µM; in assay [2], 78.6 µM; in assay [3], 53.2 µM; in assay [4] it was greater than 100 µM; in assay [5] it was greater than 100 µM; in [6], greater than 100 µM. Also, the TGI in assay [7] is 47.6 µM; in assay [8], greater than 100 µM; in [9] it was greater than 100 µM; in [10], 34.9 µM; in [11] it was greater than 100 µM; in [12] it was 51.9 µM. In addition, the TGI is greater than 100 µM in assay [13]; 44.6 µM in assay [14]; greater than 100 µM in assay [15]; greater than 100 µM in assay [19]; greater than 100 µM in assay [16]; greater than 100 µM in assay [18].

`OCCCc1cc(O)c2c(c1)C(CO)C(c1ccc(O)c(O)c1)O2` (stereo not given): the TGI in assay [1], in [2], in [3], in [4], in [5] and in assay [6] was greater than 100 µM each time. Further, the TGI in [7], in assay [8], in assay [9], in assay [10], in [11] and in assay [13] was greater than 100 µM throughout. Also, the TGI in assay [15], in assay [19], in assay [16], in [17] and in [18] was greater than 100 µM throughout.

Turning to `O=[N+]([O-])c1cc(-c2nnc(C34CC5CC(CC(C5)C3)C4)o2)cc([N+](=O)[O-])c1`, the TGI in assay [1], in [2], in assay [3], in [4], in [5] and in [6] was greater than 100 µM throughout. Besides, the TGI in assay [7] was 32.2 µM; in assay [8] it was greater than 100 µM; in assay [9], 70.4 µM; in [10], greater than 100 µM; in [11], greater than 100 µM; in assay [12] it was greater than 100 µM. Further, the TGI in [13], in assay [14], in assay [15], in [19], in assay [16] and in assay [18] was greater than 100 µM in each case.

Regarding `C=C(C)[C@H]1C[C@@H]2O[C@@](O)(/C(C)=C\C(=O)/C=C(/C)C[C@H]3OC(=O)[C@@]24O[C@H]34)[C@@H]1O`, the TGI in assay [1], in assay [2], in [3], in [4], in assay [5] and in assay [6] was greater than 100 µM throughout. Moreover, the TGI in assay [7], in assay [8], in [9], in assay [10], in [11] and in assay [12] was greater than 100 µM in each case. Besides, the TGI in assay [13] was greater than 100 µM; in assay [14] it was 97.6 µM; in assay [15], greater than 100 µM; in assay [19], greater than 100 µM; in assay [16], greater than 100 µM; in assay [17], greater than 100 µM.

As to `CSc1nc2c(c(=O)[nH]1)N=C(c1ccc(Cl)cc1)CC(c1ccccc1)N2` (stereo not given), the TGI is 30 µM in [1]; greater than 100 µM in assay [2]; 26.4 µM in assay [3]; 34.2 µM in assay [4]; 40.9 µM in assay [5]; 39.6 µM in assay [6]. Moreover, the TGI in assay [7] turned out to be 31.4 µM; in assay [8], 30 µM; in [9], 29.9 µM; in [10], 30.8 µM; in assay [11] it was 29.4 µM; in assay [12], 23.6 µM. In addition, the TGI in assay [13] was 34.2 µM; in [14] it was 34.4 µM; in [15] it was 33.3 µM; in assay [19] it was 32.4 µM; in assay [16], greater than 100 µM; in assay [18], 26.8 µM.

Turning to `CCOC1(OCC)N=C(N)C2(C#N)C3(C(=O)N(C(C)C)N=C3C)C12C#N` (stereo not given), the TGI in assay [1], in [2], in [3], in assay [4], in assay [5] and in assay [6] was greater than 100 µM each time. The TGI in assay [7], in assay [8], in [9], in assay [10], in [11] and in assay [12] was greater than 100 µM throughout. Moreover, the TGI in assay [13], in [14], in assay [15], in assay [19], in assay [16] and in [18] was greater than 100 µM each time.
